Reference: patent US20250313530A1, “SMALL MOLECULE INHIBITORS OF INTERLEUKIN-4 AND USES THEREOF” (Trustees of Boston University, priority 2024, published 2025)
Where “and” joins values, the source holds several entries; their conditions need not be identical. Equal values may be shown once. Read-outs that look alike come from different tables or passages of the source. Blank lines part the entries; values can stand above or below the compound they belong to.

Columns and labels:
Human plasma stability = format: in vitro ADME; conditions: listed as Analog 14
[1] = system: IL-4 induced STAT-6 phosphorylation in Ramos B lymphocytes (type I IL-4 receptor); test: Ramos STAT-6 phosphorylation assay (western blot); format: cell-based
Description: Ramos cells were purchased from ATCC and maintained in RMPI-1640 with 10% heat-inactivated Fetal Bovine Serum. Cells used for assays were between passages 4 and 8. […] Undiluted cell lysates were run SDS-PAGE and transferred to Immunoblot PVDF membrane using Biorad equipment. Membranes were incubated with 1:1000 primary antibody overnight at 4° C. Membranes were then incubated with 1:50,000 dilution secondary for 1 hour at room temperature. Membranes were then exposed to Femto ECL for 5 minutes and imaged using a Bio-Rad Gel Doc. The brightness/contrast was adjusted in FIJI and the area under the curve of each lane was quantified. The phosphorylated STAT-6 to STAT-6 ratio was calculated and normalized to the amount of total STAT-6. The data was plotted and analyzed using GraphPad Prism 9.2.0.

IL-4 [2] = molecular target: T1, IL-4 (Homo sapiens, UniProt P05112); test: HEK-Blue IL-4/IL-13 reporter assay, IL-4 inhibition; format: cell-based; conditions: control: cells with 10 μM compound only, no IL-4
T1 construct: purchased Acros Biosystems IL4-H4218; host or cells: HEK-293
T1 sequence (P05112 25-153): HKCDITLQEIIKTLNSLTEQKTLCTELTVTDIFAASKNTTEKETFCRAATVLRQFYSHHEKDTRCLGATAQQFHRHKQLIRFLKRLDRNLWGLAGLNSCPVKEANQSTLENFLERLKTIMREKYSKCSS

IL-13 = IL-13 (Homo sapiens, UniProt P35225); test: HEK-Blue IL-4/IL-13 reporter assay, IL-13 inhibition; format: cell-based
Description: Prior to screening. […] The solution was added to preincubated cells in a 96-well culture plate. The supernatant was then incubated with Quanti-Blue dye for 3 hours and absorbance was measured at 650 nm. Data was analyzed and plotted using GraphPad Prism 9.2.0.

Mouse plasma stability = format: in vitro ADME
B16-F10 cells = test: In vitro cytotoxicity (CellTiter-Glo); format: cell-based; conditions: up to 25 μM
Description: CellTiter-Glo 2.0 purchased from Promega G9242) was used to measure cell viability with the Victor-3 plate reader (PerkinElmer) after 24 hours in concentrations of compound up to 25 μM. Vehicle was used as a negative control for both cytotoxicity and growth inhibition, methanol was used as a positive control for cytotoxicity, and 1% FBS was used as a positive control for growth inhibition.

IL-4 [3] = molecular target: T1, IL-4; test: HEK-Blue IL-4/IL-13 reporter assay, IL-4 inhibition; format: cell-based; conditions: for % Inhibition / inhibition at 10 µM: 10 μM, IL-4, HEK Blue IL-4/IL-13 reporter assay; for inhibition at 10 µM: HEK-Blue; for EC50: dose response, IL-4 inhibition
Description: HEK-Blue IL-4/IL-13 Inhibition assay. HEK-Blue IL-4/IL-13 reporter cell lines were purchased from Invivogen and cultured in DMEM with 10% Heat Inactivated Fetal Bovine Serum (FBS), 100 U/ml-100 μg/ml Pen-Strep, 10 μg/ml blasticidin, 100 μg/ml Normocin and 100 μg/ml Zeocin. Cells were tested for secreted embryonic alkaline phosphatase (SEAP) production induced by IL-4 alone prior to small molecule screening.
22.5 μl of small molecule in DMEM 4% DMSO was added to 22.5 μl of 1 ng/ml IL-4 in DMEM in a non-binding 96-well reaction plate for 30 minutes at room temperature. The reaction plate was further incubated for 30-60 min at 37° C. HEK-Blue IL-4/IL-13 reporter cell line was used between passages 11-17. […] Measurements were done in triplicate. The plate was incubated for ˜22-24 hours at 37° C./5% CO2. Quanti-Blue dye was prepared as per the manufacturer's recommendation and 160 μl was dispensed in each well of a 96-well plate (avoid edges to avoid evaporation), 40 μl of cell supernatant was added to the same plate and incubated for 3 hours at 37° C./5% CO2. Optical density was then measured at 650 nm using Molecular Devices SpectraMax M5 Microplate reader. Data was analyzed and plotted using GraphPad Prism 9.2.0.

[4] = Mouse hepatic microsome stability; format: in vitro ADME; conditions: mouse hepatic microsomes
[5] = system: IL-4 induced pSTAT-6 in THP-1 cells; test: THP-1 pSTAT-6 immunofluorescence
Description: IL-4 and analogs or vehicle (DMEM with 2% DMSO) were preincubated for 2 hours at 37° C. After the incubation, IL-4 or IL-4/analogs were incubated with THP-1 cells for 30 min at 37° C./5% CO2. Incubated cells were centrifuged for 5 min at 250×g. After aspirating the supernatant, cells were resuspended in 1×PBS and plated into a MatTek dish coated with Cell Tak adhesive for 30 minutes at room temperature. Cells were fixed with 4% Paraformaldehyde for 1 hour at room temperature. Cells were rinsed twice with 1×PBS and then permeabilized with 0.5% Triton-X for 1 hour at room temperature. Cells were rinsed again with 1×PBS, and blocked for an hour in superblock with 0.05% Tween-20, rinsed twice, and then incubated with anti-pSTAT-6 1:100 diluted in superblock 0.05% Tween-20 overnight at 4° C. (parafilmed to avoid evaporation). Cells were rinsed thrice with 1×PBS and then incubated with Mouse anti-rabbit IgG(H+L) Secondary Antibody-Alexa Fluor 647 for 1 hour at room temperature in the dark. […] Cells were rinsed twice with 1×PBS and left in 1 ml of 1×PBS. Confocal Imaging was done using an Olympus FV10i and images were processed using FIJI.

[6] = system: IL-4 induced STAT-6 phosphorylation in THP-1 monocytes (type II IL-4 receptor); test: THP-1 STAT-6 phosphorylation assay (western blot); format: cell-based
Description: THP-1 cells were received as a gift from the laboratory of Dr. Mark Grinstaff and maintained in RMPI-1640 with […] heat-inactivated Fetal Bovine Serum and 50 μM beta-mercaptoethanol. Cells used for assays were between passages 6 and 10, 10 ng/mL IL-4 was preincubated with experimental sample (vehicle or analogs) for 30 minutes at 37° C. 1 mL of each solution was then added to a pellet of 2 E6 THP-1 cells and pipetted up and down. THP-1 cells were incubated for 30 minutes in the incubator at 37 C/5% CO2. Cells were then spun down and lysed with 200 μL ice-cold RIPA buffer complete with phosphatase and protease inhibitors. Cell lysates were incubated on ice for 30 minutes, spun down and the supernatants were stored at −20° C. until western blot analysis. Undiluted cell lysates were run on SDS-PAGE and transferred to Immunoblot PVDF membrane using Biorad equipment. Membranes were incubated with 1:1000 primary antibody overnight at 4° C. Membranes were then incubated with 1:50,000 dilution secondary for 1 hour at room temperature. Membranes were then exposed to Femto ECL for 5 minutes and imaged using a Bio-Rad Gel Doc. The brightness/contrast was adjusted in FIJI and the area under the curve of each lane was quantified. The phosphorylated STAT-6 to STAT-6 ratio was calculated and normalized to the amount of total STAT-6. The data was plotted and analyzed using GraphPad Prism 9.2.0′.

soluble IL-4 = molecular target: T2, soluble IL-4 (Homo sapiens, UniProt P05112); test: Differential scanning fluorimetry (thermal shift), IL-4; format: binding; conditions: soluble IL-4, 2 μM compound, 0.1% DMSO; read-out: Tm shift
T2 sequence (P05112 25-153): T1 sequence (P05112 25-153)
Description: DSF was performed using BioRad CFX384.

[7] = PAMPA membrane permeability; format: in vitro ADME; conditions: 18 hours incubation
Description: PVDF membranes purchased from Bioassay Systems PAMPA-096 were coated with 5 μL of 4% Phosphatidylcholine (Lecithin, MP Biomedicals 0210214780) in dodecane. […] Permeability was calculated by Pv=C×ln (1−ODA/ODE) cm/s, where ODA is the absorbance of acceptor solution minus blank, and ODE the absorbance of the equilibrium standard minus blank, and C=7.72×10^−6 using an 18-hour incubation time.

[8] = HEK Blue IL-4/IL-13 reporter assay, read-out: EC50

Sequence of IL-13 (P35225 25-146): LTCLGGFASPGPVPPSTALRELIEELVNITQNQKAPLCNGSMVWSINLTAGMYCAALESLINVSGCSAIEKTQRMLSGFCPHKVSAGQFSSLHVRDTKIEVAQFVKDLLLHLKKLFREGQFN

Structure (SMILES): N#Cc1c(-c2ccc(O)c(O)c2)cc(-c2ccc(N)cc2)[nH]c1=N [Compound 14, 6-(4-aminophenyl)-4-(3,4-dihydroxyphenyl)-2-imino-1,2-dihydropyridine-3-carbonitrile]
Human plasma stability (% remaining after 3 hours) (Human plasma stability): >99%/>99%
inhibition at 0.5 µM ([1]; Homo sapiens, Ramos, read-out: percent inhibition of STAT-6 phosphorylation): 31.4%
inhibition of phosphorylation of STAT-6 ([1]; Ramos B lymphocytes, 50 nM): minimum inhibition
Abs650 (IL-4 [2]): 0.05948 ± 0.000642
fold less potent for IL-13 than for IL-4 (IL-13; IL-13 EC50 versus IL-4 EC50): 100 fold
EC50 (IL-13; soluble IL-13 mediated signaling, HEK Blue IL-4/IL-13 reporter assay): 18.2 µM
Mouse plasma stability (% remaining after 3 hours) (Mouse plasma stability): > 99%
Mouse plasma stability (% remaining after 3 hours) (Mouse plasma stability; listed as Analog 14): >99%/>99%
Cytotoxicity in B16-F10 cells (24 hours) (B16-F10 cells): no toxicity
Cytotoxicity in B16-F10 cells (24 hours) (B16-F10 cells; listed as Analog 14): n.s. < 25 μM
% Inhibition (IL-4 [3]): 94.5% and 94.5 ± 1.58% and 94.5 ± 1.68%
inhibition at 10 µM (IL-4 [3]): > 80%
EC50 (IL-4 [3]; [8]): 670 ± 280 nM
EC50 (IL-4 [3]; values in text, read-out: potency (EC50 of inhibition)): 627 nM
Hill coefficient (IL-4 [3]; fit of dose response in HEK Blue IL-4/IL-13 reporter assay): 1.69±0.25
Mouse hepatic microsome stability (% remaining after 1 hour) [4]: 75.4%
Mouse hepatic microsome stability (% remaining after 1 hour) ([4]; listed as Analog 14): 75.4%
STAT-6 phosphorylation by immunofluorescence ([5]; 500 nM): significant reduction in STAT-6 phosphorylation
STAT-6 phosphorylation by immunofluorescence ([5]; 5 μM): almost no visible STAT-6 phosphorylation
EC50 ([6]; Homo sapiens, THP-1 monocytes, western blot, normalized to STAT-6, read-out: EC50 of inhibition of STAT-6 phosphorylation): 686 nM
STAT-6 levels ([6]; total STAT-6, THP-1 cells): not impacted
ΔTm at 2 µM (soluble IL-4): 1.66 °C
Papp at 18 h, 100 μM [7]: 6.2 ×10⁻⁶ cm/s

inhibition at 10 µM (IL-4 [3]; read-out: % Inhibition): 86.1%
Mouse hepatic microsome stability (% remaining after 1 hour) [4]: 68.3%
Structure (SMILES): N#Cc1c(-c2ccc(O)c(O)c2)cc(C23CC(C2)C3)nc1N [1A/54, 6-(bicyclo[1.1.1]pentan-1-yl)-4-(3,4-dihydroxyphenyl)-2-imino-2,3-dihydropyridine-3-carbonitrile]

inhibition at 10 µM (IL-4 [3]; read-out: % Inhibition): 27.6 ± 25.1%
Structure (SMILES): N#Cc1c(-c2ccccc2)cc(-c2ccc(F)cc2)[nH]c1=O [Compound 35, 6-(4-fluorophenyl)-2-oxo-4-phenyl-1,2-dihydropyridine-3-carbonitrile]

inhibition at 10 µM (IL-4 [3]; read-out: % Inhibition): 22.9 ± 1.48%
Structure (SMILES): CN(C)c1ccc(-c2cc(-c3ccc(O)c(O)c3)c(C#N)c(N)n2)cc1 [Compound 17, 2-amino-4-(3,4-dihydroxyphenyl)-6-(4-(dimethylamino)phenyl)nicotinonitrile]

inhibition at 10 µM (IL-4 [3]; read-out: % Inhibition): 4.73 ± 4.58%
Structure (SMILES): N#Cc1c(-c2ccc(O)c(O)c2)cc(-c2ccc(-c3ccccc3)cc2)[nH]c1=N [Compound 10, 6-([1,1′-biphenyl]-4-yl)-4-(3,4-dihydroxyphenyl)-2-imino-1,2-dihydropyridine-3-carbonitrile]

Structure (SMILES): N#CC1C(=N)N=C(c2ccc(Br)cc2)C=C1c1ccc(O)c(O)c1 (stereo not drawn) [Compound 3, 6-(4-bromophenyl)-4-(3,4-dihydroxyphenyl)-2-imino-2,3-dihydropyridine-3-carbonitrile]
% Inhibition (IL-4 [3]): 63.3 ± 2.54% and 93.3 ± 2.54%
EC50 (IL-4 [3]; [8]): 1300 ± 390 nM

% Inhibition (IL-4 [3]): No inhibition
Structure (SMILES): N#Cc1c(-c2ccc(O)c(O)c2)cc(-c2ccc(-n3ccnc3)cc2)nc1N [Compound 16, 6-(4-(1H-imidazol-1-yl)phenyl)-2-amino-4-(3,4-dihydroxyphenyl)nicotinonitrile]

Structure (SMILES): N#Cc1c(-c2cccnc2)cc(-c2ccc(F)cc2)[nH]c1=N [Compound 50, 6′-(4-fluorophenyl)-2′-imino-1′,2′-dihydro-[3,4′-bipyridine]-3′-carbonitrile]
inhibition at 10 µM (IL-4 [3]): 10 ± 17.2%

inhibition at 10 µM (IL-4 [3]; read-out: % Inhibition): 0.48 ± 17.1%
Structure (SMILES): Cc1ccc(-c2cc(-c3ccc(F)cc3)[nH]c(=O)c2C#N)o1 [Compound 37, 6(4-fluorophenyl)-4-(5-methylfuran-2-yl)-2-oxo-1,2-dihydropyridine-3-carbonitrile]

% Inhibition (IL-4 [3]): 40.0 ± 5.87%
Structure (SMILES): N#Cc1c(-c2ccc(O)c(O)c2)cc(-c2ccccc2F)nc1N [Compound 2, 2-amino-4-(3A-dihydroxyphenyl)-6-(2-fluorophenyl)nicotinonitrile]

Structure (SMILES): N#Cc1c(-c2cccc(O)c2)cc(-c2ccc(F)cc2)[nH]c1=O [Compound 40, 6-(4-fluorophenyl)-4-(3-hydroxyphenyl)-2-oxo-1,2-dihydropyridine-3-carbonitrile]
inhibition at 10 µM (IL-4 [3]): 64.3 ± 12.3%

Structure (SMILES): N#Cc1c(-c2ccc(O)c(Br)c2)cc(-c2ccc(F)cc2)[nH]c1=N [Compound 52, 4-(3-bromo-4-hydroxyphenyl)-6(4-fluorophenyl)-2-imino-1,2-dihydropyridine-3-carbonitrile]
inhibition at 10 µM (IL-4 [3]): 58.8 ± 16.5%
